Patent publication US7390829B2, “Alpha-2 adrenergic agonists” (Allergan, Inc., priority 2005, dated 2008)
One block for each compound: values may come before it.

Tests used:
[1] = target: T1, alpha2B receptor (Homo sapiens, UniProt P18089); test: Receptor Selection and Amplification Technology (RSAT) assay, α2B; type: cell-based; conditions: relative to brimonidine (standard full agonist), NA = not active at concentrations less than 10 micromolar
T1 construct: expressed in transfected cells; host or cells: NIH-3T3
T1 sequence (P18089 1-450): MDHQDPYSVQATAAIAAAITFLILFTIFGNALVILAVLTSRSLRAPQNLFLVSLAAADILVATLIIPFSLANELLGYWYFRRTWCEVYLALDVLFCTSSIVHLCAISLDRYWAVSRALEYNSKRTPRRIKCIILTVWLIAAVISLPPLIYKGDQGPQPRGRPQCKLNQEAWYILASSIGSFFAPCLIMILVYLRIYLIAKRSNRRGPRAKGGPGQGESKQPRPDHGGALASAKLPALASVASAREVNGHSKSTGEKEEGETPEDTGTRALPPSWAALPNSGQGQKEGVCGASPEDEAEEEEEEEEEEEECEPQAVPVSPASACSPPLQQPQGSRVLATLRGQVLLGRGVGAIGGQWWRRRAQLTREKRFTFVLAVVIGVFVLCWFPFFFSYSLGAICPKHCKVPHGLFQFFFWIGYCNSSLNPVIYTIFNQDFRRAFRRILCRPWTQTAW
Method: (§1) Receptor Selection and Amplification Technology (RSAT) Assay
(§2) The RSAT assay measures a receptor-mediated loss of contact inhibition that results in selective proliferation of receptor-containing cells in a mixed population of confluent cells. The increase in cell number is assessed with an appropriate transfected marker gene such as β-galactosidase, the activity of which can be easily measured in a 96-well format. Receptors that activate the G protein, Gq, elicit this response. Alpha2 receptors, which normally couple to Gi, activate the RSAT response when coexpressed with a hybrid Gq protein that has a Gi receptor recognition domain, called Gq/i5.
(§3) NIH-3T3 cells are plated at a density of 2×10^6 cells in 15 cm dishes and maintained in Dulbecco's modified Eagle's medium supplemented with 10% calf serum. […] After washing with phosphate-buffered saline, β-galactosidase enzyme activity is determined by adding 200 μl of the chromogenic substrate (consisting of 3.5 mM o-nitrophenyl-β-D-galactopyranoside and 0.5% nonidet P-40 in phosphate buffered saline), incubating overnight at 30° C. and measuring optical density at 420 nm. The absorbance is a measure of enzyme activity, which depends on cell number and reflects a receptor-mediated cell proliferation. […]

[2] = target: T2, alpha2A receptor (Homo sapiens, UniProt P08913); test: Receptor Selection and Amplification Technology (RSAT) assay, α2A; type: cell-based; conditions: relative to brimonidine (standard full agonist), NA = not active at concentrations less than 10 micromolar
T2 construct: expressed in transfected cells; host or cells: NIH-3T3
T2 sequence (P08913 1-465): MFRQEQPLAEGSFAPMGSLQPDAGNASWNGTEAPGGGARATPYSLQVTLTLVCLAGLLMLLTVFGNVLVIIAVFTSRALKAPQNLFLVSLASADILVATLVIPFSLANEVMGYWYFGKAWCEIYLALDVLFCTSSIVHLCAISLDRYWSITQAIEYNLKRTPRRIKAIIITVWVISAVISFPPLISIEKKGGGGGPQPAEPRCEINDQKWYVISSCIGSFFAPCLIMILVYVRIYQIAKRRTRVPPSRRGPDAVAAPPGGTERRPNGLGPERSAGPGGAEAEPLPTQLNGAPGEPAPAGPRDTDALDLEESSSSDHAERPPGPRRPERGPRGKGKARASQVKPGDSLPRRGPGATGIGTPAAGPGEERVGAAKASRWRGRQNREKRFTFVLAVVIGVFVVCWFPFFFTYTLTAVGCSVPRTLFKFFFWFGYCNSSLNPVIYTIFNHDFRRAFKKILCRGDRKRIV
Method: as §1, §2, §3

[3] = target: T3, alpha2C receptor (Homo sapiens, UniProt P18825); test: Receptor Selection and Amplification Technology (RSAT) assay, α2C; type: cell-based; conditions: relative to brimonidine (standard full agonist), NA = not active at concentrations less than 10 micromolar
T3 construct: expressed in transfected cells; host or cells: NIH-3T3
T3 sequence (P18825 1-462): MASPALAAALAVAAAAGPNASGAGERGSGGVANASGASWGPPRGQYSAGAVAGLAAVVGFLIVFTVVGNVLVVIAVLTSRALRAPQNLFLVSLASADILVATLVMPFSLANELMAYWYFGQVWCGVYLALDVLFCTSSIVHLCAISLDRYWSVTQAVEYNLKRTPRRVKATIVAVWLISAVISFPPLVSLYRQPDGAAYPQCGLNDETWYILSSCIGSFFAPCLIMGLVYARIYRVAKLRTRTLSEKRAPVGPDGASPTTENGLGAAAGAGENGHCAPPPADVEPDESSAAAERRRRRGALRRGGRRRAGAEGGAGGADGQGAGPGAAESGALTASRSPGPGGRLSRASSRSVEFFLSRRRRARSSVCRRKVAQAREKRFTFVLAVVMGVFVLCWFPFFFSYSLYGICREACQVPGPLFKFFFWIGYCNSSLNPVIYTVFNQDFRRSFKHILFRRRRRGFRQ
Method: as §1, §2, §3

[4] = test system: locomotor activity; test: Sedation model, rats (locomotor/exploratory activity); type: in vivo; conditions: for rat locomotor activity: 30 min following dosing (FIG. 3)
Method: (§4) The utility of alpha2-adrenergic agonists is limited by a range of side effects, particularly sedation and cardiovascular depression. The sedative activity of the compounds is assessed by measuring their ability to reduce the exploratory activity of mice and rats when placed in a dark chamber 30 min following dosing. The animal's activity is determined automatically by placing it in a digicom analyzer chamber (Omnitech Electronic). These chambers have photocells criss-crossing the box that are broken as the animal moves around. The computer analyzes this movement and records total activity over a 5-min time period. […] This represents greater than a 300-fold margin of safety (FIG. 4).

[5] = test system: locomotor activity; test: Sedation model, mice (locomotor/exploratory activity); type: in vivo; conditions: oral dose of 3 mg/kg
Method: as §4

Intrinsic activity α2B [1]: 1.0
Intrinsic activity α2A [2]: 0.9
Intrinsic activity α2C [3]: 1.1
SMILES: OCC1=CCC[C@@H](Cc2c[nH]c(=S)[nH]2)C1 (single isomer, unassigned) [Compound 5]

SMILES: OCC1=CCCC(Cc2c[nH]c(=S)[nH]2)C1 (stereo not drawn) [Compound 1, 4-(3-Hydroxymethyl-cyclohex-3-enylmethyl)-1,3-dihydro-imidazole-2-thione]
sedation / locomotor activity, rats ([4]; general statement (FIG. 3)): does not sedate
rat locomotor activity ([4]; intraperitoneal doses up to at least 3 mg/kg): did not decrease
margin of safety ([4]; non-sedating dose in rats (ip 3 mg/kg, oral 10 mg/kg) versus active dose): ≥ 30 fold
rat locomotor activity ([4]; oral doses up to at least 10 mg/kg): did not decrease

SMILES: O=C(CC1CCCC1)OCC1=CCCC(Cc2c[nH]c(=S)[nH]2)C1 (stereo not drawn) [Compound 3, cyclopentyl-acetic acid 5-(2-thioxo-2,3-dihydro-1H-imidazol-4-ylmethyl)-cyclohex-1-enylmethyl ester]
sedation, rats ([4]; oral dose of 3 mg/kg): did not sedate
sedation, mice [5]: did not sedate
